The values below come from patent publication US12295970B2, “Imidazoquinoline compounds and prodrugs thereof” (UNIVERSITY OF KANSAS, priority 2019, dated 2025).

One assay addresses T1, human TLR7 (hTLR7) (Homo sapiens, UniProt Q9NYK1).
T1 construct: host or cells: HEK-293 (HEK-Blue hTLR7)
T1 sequence (Q9NYK1 27-1049): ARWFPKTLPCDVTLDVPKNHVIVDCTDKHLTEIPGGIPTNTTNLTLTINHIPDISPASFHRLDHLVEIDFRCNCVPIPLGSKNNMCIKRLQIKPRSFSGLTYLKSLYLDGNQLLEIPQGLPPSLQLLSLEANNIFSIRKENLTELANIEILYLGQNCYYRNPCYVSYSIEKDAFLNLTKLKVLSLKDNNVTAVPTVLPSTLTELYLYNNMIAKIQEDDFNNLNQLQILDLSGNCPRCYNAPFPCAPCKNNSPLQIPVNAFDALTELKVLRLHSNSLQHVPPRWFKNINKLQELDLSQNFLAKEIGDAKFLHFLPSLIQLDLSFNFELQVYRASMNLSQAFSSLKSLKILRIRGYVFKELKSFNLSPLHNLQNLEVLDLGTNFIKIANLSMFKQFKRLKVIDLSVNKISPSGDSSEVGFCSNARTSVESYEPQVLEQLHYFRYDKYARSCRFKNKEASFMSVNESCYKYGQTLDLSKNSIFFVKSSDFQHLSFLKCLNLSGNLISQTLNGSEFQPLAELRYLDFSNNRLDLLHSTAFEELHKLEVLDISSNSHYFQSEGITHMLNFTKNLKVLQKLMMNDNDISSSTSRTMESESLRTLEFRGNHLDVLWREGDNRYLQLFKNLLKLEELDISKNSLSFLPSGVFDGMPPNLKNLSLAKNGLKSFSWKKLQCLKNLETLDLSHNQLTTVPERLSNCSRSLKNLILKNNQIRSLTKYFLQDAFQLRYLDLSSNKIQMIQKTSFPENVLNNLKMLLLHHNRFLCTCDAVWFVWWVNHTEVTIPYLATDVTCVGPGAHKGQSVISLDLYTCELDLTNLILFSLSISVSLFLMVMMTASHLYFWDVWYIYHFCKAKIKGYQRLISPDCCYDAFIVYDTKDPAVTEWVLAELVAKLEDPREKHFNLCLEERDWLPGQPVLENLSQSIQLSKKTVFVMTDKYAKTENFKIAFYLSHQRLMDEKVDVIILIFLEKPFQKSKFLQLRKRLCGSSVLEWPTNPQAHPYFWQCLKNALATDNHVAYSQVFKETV
Briefly: In vitro TLR7 activity assay (HEK-Blue hTLR7, QUANTI-Blue, Example 3). The format is cell-based. The following applies: 16 h incubation; Null 1-k subtracted. Here is the method:
TLR agonist activity was measured in a dose-response study using reporter cell lines expressing the human TLR7 (hTLR7). […] The hTLR7 activity of R848-Toco, the formulation and its components were assessed using HEK-293 cells co-transfected with the hTLR7 gene and an inducible SEAP reporter gene along with the corresponding null control line (HEK-Blue™ hTLR7 and Null-1k cells, Invivogen). Cells were maintained in DMEM media with selective antibiotics according to the manufacturer protocol.^26 HEK-Blue™ cells were seeded into 96 well plates at a density of 220,000 cells/mL with 180 μL/well of culture medium. Stock solutions in DMSO were first serially diluted to seven concentrations (DMSO solutions further diluted into H2O). Each well was stimulated with 20 μL of agonists or agonist-free controls (equivalent concentration of HA-Toco, D-α-Tocopherol succinate, PBS or […] DMSO) at the determined final concentrations in 5 replicates. After 16 h of incubation at 37° C. in a 5% CO2 atmosphere, 20 μL of the supernatant from each well was sampled and spiked into 180 μL of QUANTI-Blue™ solution followed by incubation for 1 h at 37° C. Relative hTLR7 activity was then analyzed by UV-Vis at 637 nm using a microplate UV reader (SpectraMAX GeminiXS, Molecular Devices, San Jose, CA, USA). For each compound and concentration, a corresponding sample was applied to the HEK-Blue™ Null-1k cell line. The TLR7 agonist activity was determined after averaging across hTLR7 replications and subtracting the averaged Null response.
Activation levels were calculated as the difference between the average readings of the hTLR7 cell line and the Null 1-k cell line, to account for non-hTLR7 related induction of NF-κB. […] Therefore, this study confirmed that R848-Toco, formulated with HA-Toco as an emulsion, maintained its TLR agonist activity. […]

In a further assay the test system is canine PBMCs. The assay is described as follows: In vitro cytokine secretion assay in canine PBMCs (Example 3). The format is cell-based. The following applies: 15 hours, ELISA. The source says:
As a TLR7/8 agonist, R848 binds to endosomal TLR7 and 8 receptors located on antigen presenting cells (APCs). The activation of APCs produces pro-inflammatory cytokines including TNF-α, type I IFN and IL-12. These cytokines, together with stimulated APCs that take up tumor antigens, enhance the activation of anti-tumor Th-1 immune responses that involve both CD4^+ T helper cells and CD8^+ cytotoxic T cells.^16 To evaluate the Th-1 associated cytokine production in vitro, isolated canine PBMCs were treated with R848, formulated or unformulated R848-Toco, and the secretion of TNF-α and IL-12 were measured by ELISA as markers of generalized inflammatory response. Canines were chosen as a model over mice because of the greater genetic similarity to humans and more similar immune systems.^46 Peripheral blood from healthy canine donors of 7-10 years age (similar to the age of typical canines with cancer^14) was obtained with appropriate informed consent of the owner. Blood (8 mL per tube) was drawn via sterile venipuncture into a BD Vacutainer cell preparation tube containing sodium heparin (BD Biosciences). PBMCs were isolated within one hour following procurement by density gradient centrifugation according to the manufacturer protocol and resuspended to 3×10^6 cells/mL in sterile RPMI 1640 medium with L-glutamine (Gibco) supplemented with 100 IU/mL penicillin, 100 μg/mL streptomycin (Corning) and 10% (v/v) heat-inactivated Fetalgro (RMBIO). Corning 3917, 96-well tissue culture treated plates were seeded with the PBMC suspension (180 μL/well), 20 μL of the serially diluted R848 samples were added in triplicate and HA-Toco vehicle in duplicate to yield the desired concentrations in a 1% (v/v) DMSO cell suspension. […] Sample cytokine concentrations were determined by interpolation of a four-parameter logistic curve of the recombinant standards using GraphPad Prism 6. […] Cytokine secretion levels were measured by ELISA (Duoset, R&D Systems, Minneapolis, MN, USA) according to the manufacturer protocol.
(In general: ELISA stands for enzyme-linked immunosorbent assay.)

For `CCOCc1nc2c(N)nc3ccccc3c2n1CC(C)(C)O` [Compound 2, resiquimod, reference compound], the “hTLR7 activation (NF-κB, in words)” value on human TLR7 (hTLR7) is reported as “strong dose-dependent activation”. Further, in the assay on canine PBMCs, the IL-12 levels entry is “highest” and the “secretion of TNF-α” value is given as “strong secretion”.
